Data published in patent US20250339569A1, “CARBONIC ANHYDRASE IX LIGANDS” (priority 2021, published 2025).
Like-named read-outs stand apart in the source and are kept apart here. Starred links: 1 amine or outer side, 2 acyl side, 3 side chain; linkers in the order of their positions; H or OH if unused. Positions of bridges follow the written chain, without caps; N, C: chain ends. Non-standard residues stand in square brackets, D forms with d. Residues, ends and D or L forms follow the SMILES beside them. *: point of attachment. NH(CH2)3NHDOTA = O=C(O)CN1CCN(CC(=O)O)CCN(CC(=O)NCCCN*)CCN(CC(=O)O)CC1; DOTA = O=C(O)CN1CCN(CC(=O)O)CCN(CC(=O)*)CCN(CC(=O)O)CC1; Cyclopropanecarbonyl(1-CN) = N#CC1(C(=O)*)CC1; Phe(4-NH2) = Nc1ccc(C[C@H](N)C(=O)O)cc1; Cyclopentanecarbonyl = O=C(C1CCCC1)*; mXylylene = c1cc(C[*:1])cc(C[*:2])c1; X2 = O=C(CN1CCC(N[*:1])CC1)[*:2]; Aic = NC1(C(=O)O)Cc2ccccc2C1; Tle = CC(C)(C)[C@H](N)C(=O)O; X71 = O=C1NC(=O)C(CC(=O)*)N1; NMeS = CN[C@@H](CO)C(=O)O; Ac6c = NC1(C(=O)O)CCCCC1; Thp = NC1(C(=O)O)CCOCC1; X45 = COCc1cc(CN*)on1; Propionyl = CCC(=O)*; Bz = O=C(c1ccccc1)*; Sar = CNCC(=O)O

Molecular target: T1, CAIX-expressing human HT-29 colorectal cancer cells (Homo sapiens, UniProt Q16790)
T1 construct: CAIX-expressing human HT-29 colorectal cancer cells; host or cells: HT-29 human colorectal cancer cells
Assay: FACS binding assay (IC50 determination, competition with tracer 3BP-2776 or 3BP-4149)
Method in brief: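 HT-29 cells in FACS buffer (PBS, 1% FCS) at 500.000 cells/ml were exposed to compounds competing with a labelled tracer, with biotinylated compounds detected by 1 μg/mL APC-streptavidin for 30 min on ice. APC/Cy5 median fluorescence was read by flow cytometry and IC50 derived by 4PL fit.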

[1] = FACS binding assay, HT-29 cells, competition with tracer 3BP-2776 (10 nM, biotin-labeled), 4° C., 1 hour, read-out: pIC50 category (activity) (converted)
[2] = FACS competition on HT-29 cells, Tracer ID 3BP-2776 (10 nM, biotin-labeled), 4° C., 1 hour, read-out: pIC50 category (activity) (converted)
[3] = FACS binding assay, HT-29 cells, competition with tracer 3BP-4149 (3 nM, Cy5-labeled), 4° C., 1 hour, read-out: pIC50 category (activity) (converted)

| SMILES | IC50 [2] [nM] | further results |
| --- | --- | --- |
| CC(C)C[C@@H]1NC(=O)[C@H](Cc2ccc(NC(=O)C3CCCC3)cc2)NC(=O)[C@H](CC(=O)O)NC(=O)[C@H]2CCCN2C(=O)[C@H](CCC(=O)O)NC(=O)[C@@H](NC(=O)[C@H](Cc2ccc(O)cc2)NC(=O)[C@@H](NC(=O)CN2CCC(NC(=O)CN3CCN(CC(=O)O)CCN(CC(=O)O)CCN(CC(=O)O)CC3)CC2)C(C)C)CSCc2cccc(c2)CSC[C@@H](C(N)=O)NC(=O)[C@H](CO)NC(=O)[C@H](Cc2c[nH]c3ccccc23)NC(=O)[C@H]([C@@H](C)O)NC1=O [3BP-4173] ({DOTA}-[X2]VYCE[dP]D[Phe(4-NH2)](Cyclopentanecarbonyl)LTWSC-NH2; linker 4-13 via mXylylene) | – | IC50 [1]: 10 to 79.4 nM |
| CC(=O)N[C@H](C(=O)N[C@@H](Cc1ccc(O)cc1)C(=O)N[C@H]1CSCc2cccc(c2)CSC[C@@H](C(N)=O)NC(=O)[C@H](CCC(N)=O)NC(=O)[C@H](Cc2c[nH]c3ccccc23)NC(=O)[C@H]([C@@H](C)O)NC(=O)[C@H](C(C)(C)C)NC(=O)[C@H](Cc2c[nH]c3ccccc23)NC(=O)[C@H](CC(=O)O)NC(=O)CNC(=O)[C@H](CCC(=O)O)NC1=O)C(C)C [3BP-3066] (Ac-VYCEGDW[Tle]TWQC-NH2; linker 3-12 via mXylylene) | 10 to 79.4 | – |
| CCC(=O)Nc1ccc(C[C@@H]2NC(=O)[C@H](CC(=O)O)NC(=O)[C@H]3CCCN3C(=O)[C@H](CCC(=O)O)NC(=O)[C@@H](NC(=O)[C@H](Cc3ccc(O)cc3)NC(=O)[C@@H](NC(=O)CN3CCC(NC(=O)CN4CCN(CC(=O)O)CCN(CC(=O)O)CCN(CC(=O)O)CC4)CC3)C(C)C)CSCc3cccc(c3)CSC[C@@H](C(N)=O)NC(=O)[C@H](CO)NC(=O)[C@H](Cc3c[nH]c4ccccc34)NC(=O)[C@H]([C@@H](C)O)NC(=O)[C@H](CC(C)C)NC2=O)cc1 [3BP-4347] ({DOTA}-[X2]VYCE[dP]D[Phe(4-NH2)](Propionyl)LTWSC-NH2; linker 4-13 via mXylylene) | – | IC50 [3]: 100 to 794 nM |
| COCc1cc(CNC(=O)CC[C@@H]2NC(=O)[C@H]3CCCN3C(=O)[C@H](CCC(=O)O)NC(=O)[C@@H](NC(=O)[C@H](Cc3ccc(O)cc3)NC(=O)[C@@H](NC(=O)CN3CCC(NC(=O)CN4CCN(CC(=O)O)CCN(CC(=O)O)CCN(CC(=O)O)CC4)CC3)C(C)C)CSCc3cccc(c3)CSC[C@@H](C(N)=O)NC(=O)[C@H](CO)NC(=O)[C@H](Cc3c[nH]c4ccccc34)NC(=O)[C@H]([C@@H](C)O)NC(=O)[C@H](CC(C)C)NC(=O)[C@H](Cc3c[nH]c4ccccc34)NC2=O)on1 [3BP-4339] ({DOTA}-[X2]VYCE[dP]E(X45)WLTWSC-NH2; linker 4-13 via mXylylene) | – | IC50 [3]: 10 to 79.4 nM |
| CC(C)C[C@@H]1NC(=O)[C@H](Cc2ccc(NC(=O)CC3NC(=O)NC3=O)cc2)NC(=O)[C@H](CC(=O)O)NC(=O)[C@H]2CCCN2C(=O)[C@H](CCC(=O)O)NC(=O)[C@@H](NC(=O)[C@H](Cc2ccc(O)cc2)NC(=O)[C@@H](NC(=O)CN2CCC(NC(=O)CN3CCN(CC(=O)O)CCN(CC(=O)O)CCN(CC(=O)O)CC3)CC2)C(C)C)CSCc2cccc(c2)CSC[C@@H](C(N)=O)NC(=O)[C@H](CO)NC(=O)[C@H](Cc2c[nH]c3ccccc23)NC(=O)[C@H]([C@@H](C)O)NC1=O (stereo partly shown) [3BP-4458] ({DOTA}-[X2]VYCE[dP]D[Phe(4-NH2)](X71)LTWSC-NH2; linker 4-13 via mXylylene) | – | IC50 [3]: 10 to 79.4 nM |
| CC(=O)N[C@H](C(=O)N[C@@H](Cc1ccc(O)cc1)C(=O)N[C@H]1CSCc2cccc(c2)CSC[C@@H](C(N)=O)NC(=O)[C@H](CO)NC(=O)[C@H](Cc2c[nH]c3ccccc23)NC(=O)[C@@H]2CCC(=O)NCCCC[C@H](NC(=O)[C@H]3CCCN3C(=O)[C@H](CCC(=O)O)NC1=O)C(=O)N[C@@H](Cc1c[nH]c3ccccc13)C(=O)NC1(CCCCC1)C(=O)N2)C(C)C [3BP-3961] (Ac-VYCE[dP]KW[Ac6c]EWSC-NH2; linker 3-12 via mXylylene; lactam 6-9) | – | IC50 [1]: 10 to 79.4 nM |
| CC(=O)N[C@@H](Cc1ccc(O)cc1)C(=O)N[C@H]1CSCc2cccc(c2)CSC[C@@H](C(N)=O)NC(=O)[C@H](CCC(=O)NCCCNC(=O)CN2CCN(CC(=O)O)CCN(CC(=O)O)CCN(CC(=O)O)CC2)NC(=O)[C@H](Cc2c[nH]c3ccccc23)NC(=O)[C@H]([C@@H](C)O)NC(=O)[C@H](CC(C)C)NC(=O)[C@H](Cc2c[nH]c3ccccc23)NC(=O)[C@H](CC(=O)O)NC(=O)[C@H]2CCCN2C(=O)[C@H](CCC(=O)O)NC1=O [3BP-3841] (Ac-YCE[dP]DWLTWE(NH(CH2)3NHDOTA)C-NH2; linker 2-11 via mXylylene) | < 10 | – |
| CC(C)C[C@@H]1NC(=O)[C@H](Cc2ccc(NC(=O)C3(C#N)CC3)cc2)NC(=O)[C@H](CC(=O)O)NC(=O)[C@H]2CCCN2C(=O)[C@H](CCC(=O)O)NC(=O)[C@@H](NC(=O)[C@H](Cc2ccc(O)cc2)NC(=O)[C@@H](NC(=O)CN2CCC(NC(=O)CN3CCN(CC(=O)O)CCN(CC(=O)O)CCN(CC(=O)O)CC3)CC2)C(C)C)CSCc2cccc(c2)CSC[C@@H](C(N)=O)NC(=O)[C@H](CO)NC(=O)[C@H](Cc2c[nH]c3ccccc23)NC(=O)[C@H]([C@@H](C)O)NC1=O [3BP-4357] ({DOTA}-[X2]VYCE[dP]D[Phe(4-NH2)](Cyclopropanecarbonyl(1-CN))LTWSC-NH2; linker 4-13 via mXylylene) | – | IC50 [3]: 100 to 794 nM |
| CC(C)C[C@@H]1NC(=O)[C@H](Cc2c[nH]c3ccccc23)NC(=O)[C@H](CC(=O)O)NC(=O)CNC(=O)[C@H](CCC(=O)O)NC(=O)[C@@H](NC(=O)[C@H](Cc2ccc(O)cc2)NC(=O)[C@@H](NC(=O)c2ccccc2)C(C)C)CSCc2cccc(c2)CSC[C@@H](C(N)=O)NC(=O)[C@H](CCC(N)=O)NC(=O)[C@H](Cc2c[nH]c3ccccc23)NC(=O)[C@H]([C@@H](C)O)NC1=O [3BP-3108] (Bz-VYCEGDWLTWQC-NH2; linker 3-12 via mXylylene) | – | IC50: < 10 nM |
| CC(=O)N[C@H](C(=O)N[C@@H](Cc1ccc(O)cc1)C(=O)N[C@H]1CSCc2cccc(c2)CSC[C@@H](C(N)=O)NC(=O)[C@H](CO)NC(=O)[C@H](Cc2c[nH]c3ccccc23)NC(=O)[C@H]([C@@H](C)O)NC(=O)[C@H](CC(C)C)NC(=O)[C@H](Cc2c[nH]c3ccccc23)NC(=O)[C@H](CC(=O)O)NC(=O)[C@H]2CCCN2C(=O)[C@H](CCC(=O)O)NC1=O)[C@@H](C)O [3BP-3567] (Ac-TYCE[dP]DWLTWSC-NH2; linker 3-12 via mXylylene) | < 10 | – |
| CC(=O)N[C@H](C(=O)N[C@@H](Cc1ccc(O)cc1)C(=O)N[C@H]1CSCc2cccc(c2)CSC[C@@H](C(N)=O)NC(=O)[C@H](CO)NC(=O)[C@H](Cc2c[nH]c3ccccc23)NC(=O)[C@@H]2CCCCNC(=O)CC[C@H](NC1=O)C(=O)N1CCC[C@@H]1C(=O)N[C@@H](CC(=O)O)C(=O)N[C@@H](Cc1c[nH]c3ccccc13)C(=O)N[C@@H](CC(C)C)C(=O)N2)C(C)C [3BP-3899] (Ac-VYCE[dP]DWLKWSC-NH2; linker 3-12 via mXylylene; lactam 4-9) | 100 to 794 | – |
| CC(=O)N[C@H]1CSCc2cccc(c2)CSC[C@@H](C(N)=O)NC(=O)[C@H](CCC(N)=O)NC(=O)[C@H](Cc2c[nH]c3ccccc23)NC(=O)[C@H]([C@@H](C)O)NC(=O)[C@H](CC(C)C)NC(=O)[C@H](Cc2c[nH]c3ccccc23)NC(=O)[C@H](CC(=O)O)NC(=O)CN(C)C(=O)[C@H](CCC(=O)O)NC1=O [3BP-3325] (Ac-CE[Sar]DWLTWQC-NH2; linker 1-10 via mXylylene) | 100 to 794 | – |
| CC(C)C[C@@H]1NC(=O)[C@H](Cc2c[nH]c3ccccc23)NC(=O)[C@H](CC(=O)O)NC(=O)[C@H]2CCCN2C(=O)[C@H](CO)N(C)C(=O)[C@@H](NC(=O)[C@H](Cc2ccc(O)cc2)NC(=O)[C@@H](NC(=O)CN2CCC(NC(=O)CN3CCN(CC(=O)O)CCN(CC(=O)O)CCN(CC(=O)O)CC3)CC2)C(C)C)CSCc2cccc(c2)CSC[C@@H](C(N)=O)NC(=O)[C@H](CO)NC(=O)[C@H](Cc2c[nH]c3ccccc23)NC(=O)[C@H]([C@@H](C)O)NC1=O [3BP-4108] ({DOTA}-[X2]VYC[NMeS][dP]DWLTWSC-NH2; linker 4-13 via mXylylene) | – | IC50 [1]: < 10 nM |

The next lines start with results.

| IC50 [2] [nM] | SMILES | further results |
| --- | --- | --- |
| < 10 | CC(C)[C@H](NC(=O)CN1CCC(NC(=O)CN2CCN(CC(=O)O)CCN(CC(=O)O)CCN(CC(=O)O)CC2)CC1)C(=O)N[C@@H](Cc1ccc(O)cc1)C(=O)N[C@H]1CSCc2cccc(c2)CSC[C@@H](C(N)=O)NC(=O)[C@H](CO)NC(=O)[C@H](Cc2c[nH]c3ccccc23)NC(=O)[C@H]([C@@H](C)O)NC(=O)C2(CCOCC2)NC(=O)[C@H](Cc2c[nH]c3ccccc23)NC(=O)[C@H](CC(=O)O)NC(=O)[C@H]2CCCN2C(=O)[C@H](CCC(=O)O)NC1=O [3BP-3585] ({DOTA}-[X2]VYCE[dP]DW[Thp]TWSC-NH2; linker 4-13 via mXylylene) | – |
| < 10 | CC(C)[C@H](NC(=O)CN1CCC(NC(=O)CN2CCN(CC(=O)O)CCN(CC(=O)O)CCN(CC(=O)O)CC2)CC1)C(=O)N[C@@H](Cc1ccc(O)cc1)C(=O)N[C@H]1CSCc2cccc(c2)CSC[C@@H](C(N)=O)NC(=O)[C@H](CO)NC(=O)[C@H](Cc2c[nH]c3ccccc23)NC(=O)[C@H]([C@@H](C)O)NC(=O)C2(Cc3ccccc3C2)NC(=O)[C@H](Cc2c[nH]c3ccccc23)NC(=O)[C@H](CC(=O)O)NC(=O)[C@H]2CCCN2C(=O)[C@H](CCC(=O)O)NC1=O [3BP-3586] ({DOTA}-[X2]VYCE[dP]DW[Aic]TWSC-NH2; linker 4-13 via mXylylene) | – |
| < 10 | CC(C)C[C@@H]1NC(=O)[C@H](Cc2c[nH]c3ccccc23)NC(=O)[C@H](CC(=O)O)NC(=O)[C@H]2CCCN2C(=O)[C@H](CCC(=O)O)NC(=O)[C@@H](NC(=O)[C@H](Cc2ccc(O)cc2)NC(=O)[C@@H](NC(=O)CN2CCC(NC(=O)CN3CCN(CC(=O)O)CCN(CC(=O)O)CCN(CC(=O)O)CC3)CC2)C(C)C)CSCc2cccc(c2)CSC[C@@H](C(N)=O)NC(=O)[C@H](CO)NC(=O)[C@H](Cc2c[nH]c3ccccc23)NC(=O)[C@H](Cc2c[nH]cn2)NC1=O [3BP-3597] ({DOTA}-[X2]VYCE[dP]DWLHWSC-NH2; linker 4-13 via mXylylene) | – |
